Consider one molecule from patent US8426369B2, “Prevention and treatment of colon cancer” (Rutgers, The State University of New Jersey, priority 2006, dated 2013).

In data set [1] the test system is p-Smad3. Nature of the data set: Activated Smad levels (p-Smad3) in HT-29 cells. In kind it is cell-based, human. Conditions: HT-29, data not shown. An excerpt:
The significance of the transforming growth factor (TGF-β) pathway in down-regulating iNOS expression by pterostilbene was also investigated since TGF-β is a very potent inhibitor of iNOS and cytokines regulate Smad signaling of the TGF-β pathway. However, there was no effect of pterostilbene on activated Smad levels (p-Smad3) or in inducing TGF-β ligands (data not shown).

For data set [2], the system named is COX-2. The experiment in a line: Cytokine-induced COX-2 protein expression in HT-29 cells (Western blot). It is filed as cell-based, human. As for the experimental part: (§1) Human colon carcinoma cell lines HT-29 was obtained from the American Type Culture Collection (Manassas, Va.). The cells were maintained in Dulbecco's modification of Eagle's medium (DMEM) supplemented with 10% FBS and 1% penicillin/streptomycin at 37° C. and 5% CO2. The cytokine mixture, consisting of 10 ng/ml of TNF-α, IFN-γ and LPS, was used to induce iNOS and COX-2, unless otherwise mentioned. The cells were treated with the test compound either alone or in combination with cytokines for different time intervals and harvested for protein or RNA.
(§2) The cell culture conditions and the reagents used in this example were described in Example 32. Whole cell extracts were collected after the various treatments and analyzed by western blotting. The protein samples were separated on 4-15% SDS-PAGE gels (Biorad, Hercules, Calif.) followed by transfer to a polyvinylidene fluoride membrane. The membranes were blocked with 5% milk in Tris buffer for 1 h and then incubated with the appropriate primary antibody solutions overnight at 4° C. The membranes were washed with Tris buffer, and incubated with horseradish peroxidase conjugated secondary antibody solutions for 1 h at room temperature.
(§3) The protein bands were visualized using a chemiluminescence based kit from Amersham Biosciences (Buckinghamshire, UK). […]

Data set [3] is described as follows: Body weight / overt toxicity during the ACF feeding study. It is filed as in vivo. Conditions: 40 ppm in diet. The method, then:
Beginning at 5 weeks of age, all rats were fed the modified American Institute of Nutrition-76A (AIN-76A) diet. At 7 weeks of age, the animals were given s.c. injections of azoxymethane (AOM) (CAS no. 25843-45-2, Ash Stevens, Detroit, Mich.) once weekly for 2 weeks at a dose rate of 15 mg/kg body weight. One day after the second AOM injection, groups of animals (n=9 per group) were maintained on AIN-76A diet alone and AIN-76A diet containing 40 ppm pterostilbene. […] See, e.g., U.S. Application Publication No. US 2006-0057231 A1.
On the average, the animal consumed about 0.6 mg pterostilbene per day. All rats were weighed once weekly until termination of the study at 8 weeks after the second AOM treatment were sacrificed by CO2 asphyxiation. After laparotomy, the entire stomach, small intestine, and large intestine were resected. The organs were opened longitudinally, and the contents were flushed with normal saline.

The test system of data set [4] is cleaved PARP. The experiment in a line: Western blot of cleaved PARP in HT-29 cells (apoptosis marker). It is filed as cell-based, human. The settings on record: 9 h or 18 h. The method, then:
The cells were incubated with different concentrations of pterostilbene for 1, 2 and 3 days, and cell proliferation was estimated by measuring [^3H]thymidine incorporated into DNA. […] In order to evaluate whether pterostilbene potentiates cell cycle arrest or apoptosis in HT-29 cells, the effect of pterostilbene on the proteins regulating the cell cycle and/or apoptosis pathways was examined. Cells treated with pterostilbene for 9 h or 18 h were harvested and protein samples were analyzed by Western blotting (FIG. 8B).
as §2, §3
In general terms: In western blotting, separated proteins are transferred to a membrane and probed.

Data set [5] relates to proliferating cell nuclear antigen (PCNA). The experiment in a line: PCNA immunostaining and labeling index of colon sections. In kind it is in vivo, male F344 rats. The settings on record: 40 ppm in diet, AOM-treated rats. As for the experimental part: Total number of ACF/colon and multiple aberrant crypts/focus were counted and the data were analyzed by Student's t-test. The PCNA labeling index (PI) was calculated as the [(number of positive cells)/(total number of cells)]×100 for each field which is averaged to get the PI for each section. The significance of treatment between the groups was analyzed by Student's t-Test.
(§4) Animals were treated as described in Example 27. Colon samples from each group were harvested at autopsy and fixed in 10% formalin for 24 hr. They were sectioned into 8 to 10 segments, paraffin embedded, and microtomed into 4 μm thick tissue sections. The slides were incubated overnight at room temperature with antibody to proliferating cell nuclear antigen (PCNA) (1:1000 diluted, BD Pharmingen, San Diego, Calif.), iNOS (1:100 diluted, Santa Cruz Biotechnology, Santa Cruz, Calif.), or mucin MUC2 (1:250 diluted, Santa Cruz Biotechnology, Santa Cruz, Calif.).
The slides were incubated with the biotinylated secondary antibody, and then with avidin/biotinylated peroxidase complex for 30 min at room temperature (Vector Labs, Burlingame, Calif.), and were incubated with […] (DAB) substrate. The sections were then counter-stained with Modified Harris Hematoxylin. The images were taken randomly at 400× using Zeiss AxioCam HRc camera fitted to a Zeiss Axioskope 2 Plus microscope. […]

Data set [6] concerns p-JNK1/2. The experiment in a line: Western blot of p-JNK1/2 in cytokine-treated HT-29 cells. In kind it is cell-based, human. As for the experimental part: as §2
(§5) The protein bands were visualized using a chemiluminescence based kit from Amersham Biosciences (Buckinghamshire, UK). The primary antibodies against iNOS, COX-2, IκBα, cyclin D1, c-myc (Santa Cruz Bio-technology, Santa Cruz, Calif.), phospho-STAT3, phospho-Erk1/2, phospho-JNK1/2, phospho-p38, phospho-Akt, phospho-ATF2, phospho-Elk1, PARP (Cell Signaling Technology Inc., Beverly, Mass.) and actin (Sigma, St. Louis, Mo.) and secondary antibodies (Santa Cruz Biotechnology, Santa Cruz, Calif.) were used for probing the abundance of the target protein in the samples.

Data set [7] deals with iNOS. Nature of the data set: Cytokine-induced iNOS protein expression in HT-29 cells (Western blot). It is filed as cell-based, human. The settings on record: HT-29; for inhibition of iNOS expression: with cytokine mixture (each 10 ng/ml), 15 hr. The method, then:
HT-29 human colon adenocarcinoma cells were grown in 10% FBC/DMEM. Cells (about 600,000 cells/well) were plated in 6-well plate and treated with stilbene analogs shown in FIG. 4 (each at 10 μM) for 15 hours together with cytokine mixture comprising TNF-a, IFN0g, and LPS (each at 10 ng/ml). Cell lysates were prepared and subjected to Western Blot analysis.
as §1, §2, §5

Data set [8] concerns p38. The experiment in a line: Western blot of phosphorylated p38 in cytokine-treated HT-29 cells. In kind it is cell-based, human. As for the experimental part:
as §2, §5

Data set [9] deals with mucin MUC2. Nature of the data set: Mucin MUC2 immunostaining of colon sections. In kind it is in vivo, male F344 rats. The settings on record: 40 ppm in diet, AOM-treated rats. As for the experimental part:
as §4
(§6) The slides were incubated with the biotinylated secondary antibody, and then with avidin/biotinylated peroxidase complex for 30 min at room temperature (Vector Labs, Burlingame, Calif.), and were incubated with […] (DAB) substrate. The sections were then counter-stained with Modified Harris Hematoxylin. The images were taken randomly at 400× using Zeiss AxioCam HRc camera fitted to a Zeiss Axioskope 2 Plus microscope. A positive reaction is noted by a reddish brown precipitate in the nucleus for PCNA, in the cytoplasm for iNOS or in the colon crypts for mucin MUC2.

The test system of data set [10] is iNOS. Nature of the data set: iNOS immunostaining of colon sections. It is filed as in vivo, male F344 rats. The settings on record: 40 ppm in diet, AOM-treated rats. The method, then:
as §4, §6

With `COc1cc(/C=C/c2ccc(O)cc2)cc(OC)c1` [pterostilbene, (E)-4-(3,5-dimethoxystyryl)phenol], the “activated Smad levels (p-Smad3)” value in [1] is on record as “no effect”. In addition, the “induction of COX-2 by the cytokine mixture” value in data set [2] (30 μM, 9, 12 and 15 h) is “markedly blocked”. In addition, the “induction of COX-2 by the cytokine mixture, different concentrations” value in data set [2] (different concentrations) is on record as “dose-dependent manner”. The overt toxicity entry in [3] is “did not cause any overt toxicity”. In addition, the “body weights compared to control diet” value in [3] (throughout the study) is on record as “comparable”. Also, the “level of cleaved PARP” value in data set [4] is “increased”. Moreover, in data set [5], the “PCNA positive cells (%) of colon tissue” value worked out at 44.2±2.9%. Also, the p-JNK1/2 protein levels entry in data set [6] is reported as “only a small effect”. Further, the “inhibition of iNOS expression” value in data set [7] (1 μM) was determined as 14%; in data set [7] (10 μM), 61%; in [7] (30 μM), 77%. The “induction of iNOS by the cytokine mixture” value in [7] (30 μM, 9, 12 and 15 h) is given as “markedly blocked”. In addition, in [7] (different concentrations), the “induction of iNOS by the cytokine mixture, different concentrations” value was “dose-dependent manner”. Also, in [8], the “activation of p38 by cytokines” value was “strongly inhibited”. In addition, the “mucin MUC2 staining of colon mucosa” value in data set [9] was “abundant secretion of mucin MUC2”. Further, the “iNOS staining of ACF with moderate dysplasia” value in data set [10] was “weak cytoplasmic staining”.
